Data published in ChEMBL document CHEMBL4482309, “Discovery of the first selective c5a2 receptor (c5l2/c5ar2) ligands” (2017).
Activity calls are given as the source filed them. The calls are words filed in the database; no cut-off is given here.

Key:
[1] = molecular target: C5a anaphylatoxin chemotactic receptor 2 (Homo sapiens) (UniProt Q9P296); test: Partial agonist activity at C5a2 receptor (unknown origin) expressed in HEK293 cells assessed as induction of beta-arrestin-2 recruitment incubated for 1 hr by BRET assay; assay type: cell-based
C5a anaphylatoxin chemotactic receptor 2 (Homo sapiens), sequence (Q9P296 whole entry): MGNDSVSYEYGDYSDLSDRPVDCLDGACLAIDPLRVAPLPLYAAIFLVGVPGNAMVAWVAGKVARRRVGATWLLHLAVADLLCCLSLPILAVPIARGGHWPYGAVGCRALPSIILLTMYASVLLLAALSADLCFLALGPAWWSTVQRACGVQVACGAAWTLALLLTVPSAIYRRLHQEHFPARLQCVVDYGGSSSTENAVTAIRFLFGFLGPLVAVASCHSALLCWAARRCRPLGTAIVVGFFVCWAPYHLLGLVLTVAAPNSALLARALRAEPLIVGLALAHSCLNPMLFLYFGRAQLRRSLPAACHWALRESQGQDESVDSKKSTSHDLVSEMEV

[2] = molecular target: C5a anaphylatoxin chemotactic receptor 2 (Homo sapiens) (UniProt Q9P296); test: Displacement of [125I]-C5a from C5a2 receptor (unknown origin) expressed in Flp-In CHO cell membranes incubated for 1 hr by microbeta scintillation counting assay
[3] = molecular target: T1, Mitogen-activated protein kinase; ERK1/ERK2 (Homo sapiens) (UniProt P27361+P28482); test: Agonist activity at C5a2 receptor in HMDM assessed as inhibition of C5a-induced induction of ERK1/2 phosphorylation in HMDM at 100 uM pre-incubated for 30 mins before C5a addition and measured after 10 mins
T1 sequence (P27361 whole entry, looked up): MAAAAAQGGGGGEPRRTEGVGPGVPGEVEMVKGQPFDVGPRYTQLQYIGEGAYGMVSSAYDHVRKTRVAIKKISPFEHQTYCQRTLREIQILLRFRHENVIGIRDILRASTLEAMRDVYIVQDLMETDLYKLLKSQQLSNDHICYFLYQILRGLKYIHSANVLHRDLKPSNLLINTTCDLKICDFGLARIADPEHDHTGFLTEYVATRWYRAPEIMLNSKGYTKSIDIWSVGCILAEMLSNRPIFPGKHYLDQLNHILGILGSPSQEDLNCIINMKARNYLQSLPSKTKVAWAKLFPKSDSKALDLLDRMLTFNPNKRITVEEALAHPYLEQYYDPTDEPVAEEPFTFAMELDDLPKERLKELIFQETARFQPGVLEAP
T1 sequence (P28482 whole entry, looked up): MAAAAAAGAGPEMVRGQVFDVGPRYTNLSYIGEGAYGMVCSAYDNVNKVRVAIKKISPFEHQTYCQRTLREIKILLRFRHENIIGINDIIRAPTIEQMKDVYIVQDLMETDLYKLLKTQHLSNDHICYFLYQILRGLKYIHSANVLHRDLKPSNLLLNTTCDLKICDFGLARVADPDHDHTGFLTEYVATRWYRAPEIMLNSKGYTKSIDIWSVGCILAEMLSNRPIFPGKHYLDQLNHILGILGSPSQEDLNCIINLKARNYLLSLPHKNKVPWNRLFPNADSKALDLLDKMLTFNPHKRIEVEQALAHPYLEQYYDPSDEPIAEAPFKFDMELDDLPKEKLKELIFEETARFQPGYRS

[4] = molecular target: T1, Mitogen-activated protein kinase; ERK1/ERK2 (Homo sapiens); test: Induction of ERK1/2 phosphorylation in HMDM at 100 uM incubated for 30 mins; assay type: protein assay
[5] = molecular target: C5a anaphylatoxin chemotactic receptor 2 (Homo sapiens) (UniProt Q9P296); test: Agonist activity at C5a2 receptor in HMDM assessed as inhibition of LPS-induced IL-6 release at 100 uM by ELISA
[6] = molecular target: T2, C5a anaphylatoxin chemotactic receptor 1 (Homo sapiens) (UniProt P21730); test: Partial agonist activity at human C5a1 receptor assessed as induction of beta-arrestin-2 recruitment by DiscoverX Path Hunter kit based assay
T2 sequence (whole entry): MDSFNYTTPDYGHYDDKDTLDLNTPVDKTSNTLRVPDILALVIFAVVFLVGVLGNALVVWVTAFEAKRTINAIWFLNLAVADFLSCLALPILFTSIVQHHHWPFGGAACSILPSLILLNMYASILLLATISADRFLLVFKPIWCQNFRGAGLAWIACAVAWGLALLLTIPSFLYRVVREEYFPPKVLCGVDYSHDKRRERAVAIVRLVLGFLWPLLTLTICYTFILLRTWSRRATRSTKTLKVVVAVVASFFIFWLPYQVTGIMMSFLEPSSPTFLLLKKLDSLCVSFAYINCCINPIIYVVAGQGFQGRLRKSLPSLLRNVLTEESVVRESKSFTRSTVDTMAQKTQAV

[7] = molecular target: C5a anaphylatoxin chemotactic receptor 2 (Homo sapiens) (UniProt Q9P296); test: Agonist activity at C5a2 receptor in LPS-induced IHMDM assessed as effect on […] release at 0.1 to 100 uM by ELISA
[8] = molecular target: C5a anaphylatoxin chemotactic receptor 2 (Homo sapiens) (UniProt Q9P296); test: Partial agonist activity at C5a2 receptor (unknown origin) expressed in HEK293 cells assessed as induction of beta-arrestin-2 recruitment incubated for 1 hr by BRET assay relative to C5a; assay type: cell-based
[9] = molecular target: C5a anaphylatoxin chemotactic receptor 2 (Homo sapiens) (UniProt Q9P296); test: Displacement of [125I]-C5a from C5a2 receptor (unknown origin) expressed in Flp-In CHO cell membranes at 100 uM incubated for 1 hr by microbeta scintillation counting assay
[10] = molecular target: T2, C5a anaphylatoxin chemotactic receptor 1 (Homo sapiens); test: Displacement of [125I]-C5a from C5a1 receptor (unknown origin) expressed in Flp-In CHO cell membranes incubated for 1 hr by microbeta scintillation counting assay
[11] = molecular target: C5a anaphylatoxin chemotactic receptor 2 (Homo sapiens) (UniProt Q9P296); test: Agonist activity at C5a2 receptor in HMDM assessed as inhibition of LPS-induced TNFalpha release at 0.1 to 100 uM by ELISA
[12] = molecular target: C5a anaphylatoxin chemotactic receptor 2 (Homo sapiens) (UniProt Q9P296); test: Agonist activity at C5a2 receptor in HMDM assessed as inhibition of LPS-induced TNFalpha release at 100 uM in presence of C5a1 antagonist PMX53 by ELISA
[13] = molecular target: C5a anaphylatoxin chemotactic receptor 2 (Homo sapiens) (UniProt Q9P296); test: Partial agonist activity at human C5a2 receptor assessed as induction of beta-arrestin-2 recruitment by DiscoverX Path Hunter kit based assay
[14] = molecular target: T2, C5a anaphylatoxin chemotactic receptor 1 (Homo sapiens); test: Agonist activity at C5a1 receptor (unknown origin) expressed in HEK293 cells assessed as induction of beta-arrestin-2 recruitment at 100 uM incubated for 1 hr by BRET assay; assay type: cell-based
[15] = molecular target: C5a anaphylatoxin chemotactic receptor 1/2 (Homo sapiens) (UniProt P21730+Q9P296); test: Induction of C5a1-C5a2 heteromer formation (unknown origin) expressed in HEK293 cells at 100 uM by BRET assay; assay type: cell-based
[16] = molecular target: C5a anaphylatoxin chemotactic receptor 2 (Homo sapiens) (UniProt Q9P296); test: Agonist activity at C5a2 receptor in HMDM assessed as inhibition of LPS-induced IL-6 release at 10 to 100 uM by ELISA
[17] = test system: Mus musculus; test: Inhibition of C5a-induced neutrophil mobilization in iv dosed wild type mouse; assay type: functional, organism-based
[18] = test system: Mus musculus; test: Inhibition of C5a-induced neutrophil mobilization in iv dosed C5aR2 (-/-) mouse; assay type: functional, organism-based

In the case of Ac-LIRLWR-OH, the Activity [1] is reported as “Dose-dependent effect”, the inhibition [2] is reported as “Dose-dependent effect” and the inhibition [3] is reported as “Active”. For the same substance, the Activity [4] was “inactive”, the inhibition [5] was “Active” and the Activity [6] was “inactive”. The Activity [7] was “inactive”, the Activity [8] was 52.9% and the inhibition [9] was “Active”. The inhibition [10] was “Dose-dependent effect”, the inhibition [11] was “inactive” and the inhibition [12] was “inactive”. For the same substance, the Activity [13] was “Active”, the Activity [14] was “inactive” and the Activity [15] was “inactive”.
With Ac-RHYPYWR-OH the Activity [1] was “Dose-dependent effect”, the inhibition [2] was “Dose-dependent effect” and the inhibition [3] was “Active”. For the same substance, the Activity [4] was “inactive”, the Activity [6] was “inactive” and the Activity [7] was “inactive”. The inhibition [16] was “Active”, the inhibition [17] was “Active” and the Activity [8] was 28.8%. The inhibition [9] was “Active”, the inhibition [10] was “Dose-dependent effect” and the inhibition [11] was “inactive”. For the same substance, the inhibition [12] was “inactive”, the inhibition [18] was “inactive” and the Activity [13] was “Active”. For the same substance, the Activity [14] was “inactive” and the Activity [15] was “inactive”.
